{"source": "patent US8388931B2", "about": "“99m Tc-labeled triphenylphosphonium derivative contrasting agents and molecular probes for early detection and imaging of breast tumors” (priority 2008, dated 2013)", "system": "DMBA-induced breast carcinoma", "assay": "In vivo gamma camera imaging of DMBA-induced breast carcinoma in rats", "set-up": "species or system rats (female Sprague Dawley)", "experimental": "The animal protocol was approved by institutional IACUC review and followed NIH guidelines. The rat model of DMBA-induced breast carcinoma was used.\nAs an initial feasibility study, rats were induced with 65 mg/kg DMBA dissolved in sesame oil via a single oral gavage to the stomach. […] Static images were acquired on a GE XRT gamma camera using a high-resolution parallel-hole collimator, 512×512 matrix size, 22.5×22.5 cm field of view, 140±15 keV energy window, 100 k counts. Unexpectedly, apart from the established palpable carcinomas, additional small (millimeter size) tumors were discovered by this imaging technique in the same animals. This finding promoted a longitudinal study to investigate the early detection of neoplastic growth using ^99mTc-Mito10-MAG3.\nSix 48-day-old female rats were injected with 65 mg/kg DMBA. At each week after DMBA induction, the rats were imaged using the following protocol. Each rat was anesthetized with 1.6% isoflurane in room air supplemented with oxygen. […] Dynamic images were continuously acquired at one frame per min for 90 min using the imaging parameters set forth hereinabove. The weekly imaging regiment was continued for all six rats until palpable tumors became detectable, which typically takes place between seven to nine weeks after the administration of DMBA. Due to the relatively short physical half-life of ^99mTc (6 hr), no residual signal, therefore, no cross-contamination is detectable from the previous injection the week before.\n^99mTc-MIBI of clinical formulation was purchased from Bristol Myers Squibb. […] Dynamic images were acquired in identical fashion following 99mTc-MIBI injection.\nThe female Sprague Dawley rats have six pairs of mammary glands, among which glands a and b are away from the hepatic/gastrointestinal region. (FIG. 9, Panel A). Since the typical biodistribution of a lipophilic radiopharmaceutical in the abdominal region precludes reliable imaging of breast tissues below the diaphragm, mammary glands shown in Panels C, D, E and F were excluded from the data analysis. This exclusion also was based on the fact that such spatial distribution of mammary glands is irrelevant to that of the human anatomy.\nImaging data analysis was carried out using an inbuilt software, by carefully drawing a region of interest (ROI) on the tumor site to determine the radioactivity counts in the ROI. […] Radioactivity counts were determined in each ROI. Tumor-to-normal and tumor-to-muscle ratios were calculated as the count ratio between the two ROIs.\nThe rats were sacrificed by CO2 asphyxiation and the number and location of the mammary tumors were recorded at necropsy. The tumors were dissected, with the diameter and weight measured and documented. […]"}
{"molecule": "CC(=O)[S+]1CC(=O)[N]2CC(=O)[N]3CC(=O)[N](CC(=O)NCCCCCCCCCC[P+](c4ccccc4)(c4ccccc4)c4ccccc4)[99Tc]321=[O].[Br-]", "note": "(centres unmarked) [^99mTc-Mito10-MAG3]", "values": [{"measurement": "uptake in small breast tumors that escaped detection by palpation", "setting": "15 μg via tail vein, gamma camera", "value": "significant focal uptake"}, {"measurement": "weight of small non-palpable tumor detected by imaging", "setting": "feasibility experiment, 11 weeks after DMBA induction, at dissection", "value": 18, "unit": "mg"}]}
